Experimental findings from patent publication US20250346569A1, “NEW DERIVATIVES FOR TREATING TRPM3 MEDIATED DISORDERS” (Katholieke Universiteit Leuven, priority 2022, published 2025) are described below.

Broadly, the IC50 is the concentration needed to halve the response being measured. Higher therefore signals lower potency.

Structures are written as SMILES.

This assay deals with T1, mouse TRPM3α2 (mTRPM3) ion channel (Mus musculus, UniProt J9SQF3).
T1 construct: expressed in transfected cells; host or cells: flip-in HEK293
T1 sequence (J9SQF3 1-1709 isoform J9SQF3-12): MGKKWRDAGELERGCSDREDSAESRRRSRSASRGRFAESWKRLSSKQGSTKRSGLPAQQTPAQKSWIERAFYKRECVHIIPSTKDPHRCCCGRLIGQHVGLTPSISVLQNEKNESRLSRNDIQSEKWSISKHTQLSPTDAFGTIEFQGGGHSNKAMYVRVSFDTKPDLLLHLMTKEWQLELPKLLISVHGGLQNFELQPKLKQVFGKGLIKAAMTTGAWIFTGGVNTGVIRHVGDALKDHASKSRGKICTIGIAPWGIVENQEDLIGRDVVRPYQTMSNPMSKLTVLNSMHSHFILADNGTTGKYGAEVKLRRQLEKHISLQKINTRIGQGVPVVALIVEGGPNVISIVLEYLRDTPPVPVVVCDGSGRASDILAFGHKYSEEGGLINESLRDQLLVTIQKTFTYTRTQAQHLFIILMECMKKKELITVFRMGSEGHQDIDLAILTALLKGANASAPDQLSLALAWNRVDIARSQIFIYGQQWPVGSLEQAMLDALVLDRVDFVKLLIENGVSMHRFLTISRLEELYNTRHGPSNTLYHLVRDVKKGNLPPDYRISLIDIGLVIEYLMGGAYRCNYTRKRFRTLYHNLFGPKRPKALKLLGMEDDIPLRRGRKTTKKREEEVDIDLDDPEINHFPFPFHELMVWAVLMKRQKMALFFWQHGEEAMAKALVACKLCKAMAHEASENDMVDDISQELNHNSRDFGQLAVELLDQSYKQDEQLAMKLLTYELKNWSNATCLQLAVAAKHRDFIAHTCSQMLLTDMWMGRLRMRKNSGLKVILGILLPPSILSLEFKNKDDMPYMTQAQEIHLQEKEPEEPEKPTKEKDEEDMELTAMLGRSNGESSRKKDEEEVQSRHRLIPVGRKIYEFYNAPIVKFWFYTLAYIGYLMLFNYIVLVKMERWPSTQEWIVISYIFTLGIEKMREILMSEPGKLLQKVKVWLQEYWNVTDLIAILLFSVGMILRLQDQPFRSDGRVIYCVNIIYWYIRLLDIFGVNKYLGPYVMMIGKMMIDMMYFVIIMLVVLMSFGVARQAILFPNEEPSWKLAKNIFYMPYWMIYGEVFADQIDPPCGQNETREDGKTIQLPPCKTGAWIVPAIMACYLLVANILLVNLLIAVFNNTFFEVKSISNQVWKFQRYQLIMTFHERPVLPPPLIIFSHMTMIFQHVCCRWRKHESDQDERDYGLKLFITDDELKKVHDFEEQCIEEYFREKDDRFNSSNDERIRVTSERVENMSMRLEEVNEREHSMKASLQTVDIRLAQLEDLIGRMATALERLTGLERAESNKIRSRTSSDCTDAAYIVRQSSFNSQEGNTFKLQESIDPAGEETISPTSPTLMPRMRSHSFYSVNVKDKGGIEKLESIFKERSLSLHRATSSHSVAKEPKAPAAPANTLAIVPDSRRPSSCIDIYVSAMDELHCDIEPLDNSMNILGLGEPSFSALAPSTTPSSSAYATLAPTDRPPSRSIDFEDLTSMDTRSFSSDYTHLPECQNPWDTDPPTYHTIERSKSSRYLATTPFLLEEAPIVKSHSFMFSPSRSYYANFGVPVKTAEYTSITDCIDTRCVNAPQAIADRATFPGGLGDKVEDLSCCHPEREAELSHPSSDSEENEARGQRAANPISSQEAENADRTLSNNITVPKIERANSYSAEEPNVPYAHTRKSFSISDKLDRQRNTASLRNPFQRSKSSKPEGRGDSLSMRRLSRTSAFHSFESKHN
The assay is described as follows: Monitoring the TRPM3 ion channel driven Ca2+ uptake (Fluo-4 AM assay). The assay is classed as cell-based. The following applies: TRPM3 overexpressing flip-in HEK293 cells, channel stimulated with Pregnenolone sulfate (PS) 50 μM. On the procedure: Monitoring the TRPM3 ion channel driven Ca^2+ uptake.
In order to monitor the inhibition of the mouse TRPM3α2 (mTRPM3) ion channel by the compounds of the invention, a cellular system making use of an mTRPM3alpha2 or hTRPM3 overexpressing cell line (flip-in HEK293) was used. The TRPM3 channel was stimulated/opened with Pregnenolone sulfate (PS) (50 μM) which results in Ca^2+ influx.
For mTRPM3, the intracellular Ca^2+ was measured with a Calcium responsive dye, Fluor-4 AM ester (Invitrogen). Cells were cultured until a confluence of 80-90%, washed with Versene (Invitrogen) and detached from the surface by a short incubation with 0.05% Trypsin (Invitrogen). The trypsination process was stopped by the addition of complete cell culture medium (DMEM, glutamax,10% FCS,NEAA,Pen-Strep). Cells were collected and resuspended in Krebs buffer without Calcium at RT.
Prior the cell seeding (±2000 cells/well into a black, 384 well plate (Greiner)) the diluted compound was added in the assay plate, together with the PS dissolved in Krebs buffer containing Calcium. […] Directly after cell addition the plates were read on an Envision fluorescence reader (Perkin Elmer) by an Excitation of 485 nm and emission at 535 nm.
Channel inhibition was calculated compared to a non-PS stimulated control versus a condition stimulated with PS (50 μM) with vehicle. The ability of the compounds of the invention to inhibit this activity was determined as: Percentage inhibition=[1−((RFU determined for sample with test compound present−RFU determined for sample with positive control inhibitor) divided by (RFU determined in the presence of vehicle−RFU determined for sample with positive control inhibitor))]*100.
The activities of the Example compounds tested are depicted in the table below. The activity ranges A, B and C refer to IC50 values in the Fluo-4 AM assay as follows: “A”: IC50<1 μM; “B”: 1 μM≤IC50≤20 μM and “C”: IC50>20 μM
With `Cc1sc2ccc(OCc3ccccc3F)cc2c1C(=O)NC1CCNCC1(F)F` (single isomer, unassigned) [Cpd 095 - En1, N-(3,3-difluoropiperidin-4-yl)-5-[(2-fluorophenyl)methoxy]-2-methyl-1-benzothiophene-3-carboxamide], the IC50 lay in the range of 1000 to 20000 nM.
To `COc1ncccc1COc1ccc2sc(C)c(C(=O)N[C@@H](CO)C(N)=O)c2c1` [Cpd 139, (2S)-3-hydroxy-2-({5-[(2-methoxypyridin-3-yl)methoxy]-2-methyl-1-benzothiophen-3-yl}formamido)propanamide] belongs less than 1000 nM; to `CN1CCC(NC(=O)c2c(C(F)F)sc3ccc(OCc4ccccc4)cc23)CC1` [Cpd 128, 5-(benzyloxy)-2-(difluoromethyl)-N-(1-methylpiperidin-4-yl)-1-benzothiophene-3-carboxamide], 1000 to 20000 nM; to `Cc1ncsc1COc1ccc2sc(C)c(C(=O)N[C@H]3CCN(CCO)C3=O)c2c1` [Cpd 030, N-[(3S)-1-(2-hydroxyethyl)-2-oxopyrrolidin-3-yl]-2-methyl-5-[(4-methyl-1,3-thiazol-5-yl)methoxy]-1-benzothiophene-3-carboxamide], less than 1000 nM.
The figure for `CC(C)(O)CNC(=O)c1c(C(F)F)sc2ccc(OCc3ccccc3)cc12` [Cpd 014, 5-(benzyloxy)-2-(difluoromethyl)-N-(2-hydroxy-2-methylpropyl)-1-benzothiophene-3-carboxamide] is more than 20000 nM; for `Cc1ncc(COc2ccc3sc(C)c(C(=O)NC(C)(CO)C(N)=O)c3c2)s1` (single isomer, unassigned) [Cpd 019 - En2, 3-hydroxy-2-methyl-2-({2-methyl-5-[(2-methyl-1,3-thiazol-5-yl)methoxy]-1-benzothiophen-3-yl}formamido)propanamide] it is less than 1000 nM.
To `Cc1sc2ccc(OCc3ccccc3F)cc2c1C(=O)N[C@@H](C)C(N)=O` [Cpd 007, (2S)-2-({5-[(2-fluorophenyl)methoxy]-2-methyl-1-benzothiophen-3-yl}formamido)propanamide] belongs less than 1000 nM.
Consider `Cc1ncc(COc2ccc3sc(C)c(C(=O)NC4(CO)CCC4)c3c2)s1` [Cpd 023, N-[1-(hydroxymethyl)cyclobutyl]-2-methyl-5-[(2-methyl-1,3-thiazol-5-yl)methoxy]-1-benzothiophene-3-carboxamide], for which the IC50 is less than 1000 nM.
To `Cc1ncsc1COc1ccc2sc(C)c(C(=O)NCC3CCC(=O)N3)c2c1` (centres unmarked) [Cpd 046, 2-methyl-5-[(4-methyl-1,3-thiazol-5-yl)methoxy]-N-[(5-oxopyrrolidin-2-yl)methyl]-1-benzothiophene-3-carboxamide] belongs less than 1000 nM; to `Cc1sc2ccc(OCc3ccccc3)cc2c1C(=O)NCCN(C)C` [Cpd 115, 5-(benzyloxy)-N-[2-(dimethylamino)ethyl]-2-methyl-1-benzothiophene-3-carboxamide], 1000 to 20000 nM.
`Cc1ncsc1COc1ccc2sc(C)c(C(=O)N[C@@H](C)C(N)=O)c2c1` [Cpd 012, (2S)-2-({2-methyl-5-[(4-methyl-1,3-thiazol-5-yl)methoxy]-1-benzothiophen-3-yl}formamido)propanamide] registered an IC50 of less than 1000 nM.
To `COc1ncccc1COc1ccc2sc(C)c(C(=O)NC3(CO)CC3)c2c1` [Cpd 142, N-[1-(hydroxymethyl)cyclopropyl]-5-[(2-methoxypyridin-3-yl)methoxy]-2-methyl-1-benzothiophene-3-carboxamide] belongs 1000 to 20000 nM.
The figure for `O=C(NCc1cccc(O)n1)c1c(C(F)F)sc2ccc(OCc3ccccc3)cc12` [Cpd 151, 5-(benzyloxy)-2-(difluoromethyl)-N-[(6-hydroxypyridin-2-yl)methyl]-1-benzothiophene-3-carboxamide] is more than 20000 nM; for `Cc1sc2ccc(OCc3ccccc3)cc2c1C(=O)Nc1ccn(C)n1` [Cpd 091, 5-(benzyloxy)-2-methyl-N-(1-methyl-1H-pyrazol-3-yl)-1-benzothiophene-3-carboxamide] it is less than 1000 nM.
`Cc1sc2ccc(OCc3cccnc3C(F)(F)F)cc2c1C(=O)N[C@@H](CO)C(N)=O` [Cpd 053, (2S)-3-hydroxy-2-[(2-methyl-5-{[2-(trifluoromethyl)pyridin-3-yl]methoxy}-1-benzothiophen-3-yl)formamido]propanamide] displayed an IC50 of less than 1000 nM.
The figure for `Cc1ncsc1COc1ccc2sc(C)c(C(=O)NC3CCNCC3(F)F)c2c1` (single isomer, unassigned) [Cpd 042 - En2, N-(3,3-difluoropiperidin-4-yl)-2-methyl-5-[(4-methyl-1,3-thiazol-5-yl)methoxy]-1-benzothiophene-3-carboxamide] is less than 1000 nM.
`CCOC(=O)c1c(C)sc2ccc(OC)cc12` [Cpd 110, ethyl 5-methoxy-2-methyl-1-benzothiophene-3-carboxylate] had an IC50 of more than 20000 nM.
The figure for `Cc1sc2ccc(OCc3ccccc3)cc2c1C(=O)NCC(C)(C)N1CCOCC1` [Cpd 098, 5-(benzyloxy)-2-methyl-N-[2-methyl-2-(morpholin-4-yl)propyl]-1-benzothiophene-3-carboxamide] is 1000 to 20000 nM; for `Cc1sc2ccc(OCc3ccccn3)cc2c1C(=O)NC1(CO)CCOCC1` [Cpd 082, N-[4-(hydroxymethyl)oxan-4-yl]-2-methyl-5-[(pyridin-2-yl)methoxy]-1-benzothiophene-3-carboxamide] it is 1000 to 20000 nM.
The figure for `Cc1ncc(COc2ccc3sc(C)c(C(=O)NC(C)(C)C(N)=O)c3c2)s1` [Cpd 018, 2-methyl-2-({2-methyl-5-[(2-methyl-1,3-thiazol-5-yl)methoxy]-1-benzothiophen-3-yl}formamido)propanamide] is less than 1000 nM; for `Cc1sc2ccc(OCc3ccccc3)cc2c1C(=O)N[C@H](C)C(N)=O` [Cpd 001, (2R)-2-{[5-(benzyloxy)-2-methyl-1-benzothiophen-3-yl]formamido}propanamide] it is less than 1000 nM; for `Cc1sc2ccc(OCc3cccnc3C(F)(F)F)cc2c1C(=O)N[C@@H](C)C(N)=O` [Cpd 009, (2S)-2-[(2-methyl-5-{[2-(trifluoromethyl)pyridin-3-yl]methoxy}-1-benzothiophen-3-yl)formamido]propanamide] it is less than 1000 nM.
To `O=C(NC1CCOC1)c1c(C(F)F)sc2ccc(OCc3ccccc3)cc12` (centres unmarked) [Cpd 147, 5-(benzyloxy)-2-(difluoromethyl)-N-(oxolan-3-yl)-1-benzothiophene-3-carboxamide] belongs 1000 to 20000 nM.
`Cc1sc2ccc(OCc3ccccc3)cc2c1C(=O)NC1(CO)CCOCC1` [Cpd 080, 5-(benzyloxy)-N-[4-(hydroxymethyl)oxan-4-yl]-2-methyl-1-benzothiophene-3-carboxamide]: the IC50 lay within 1000 to 20000 nM.
To `Cc1sc2ccc(OCc3ccccn3)cc2c1C(=O)N[C@@H](C)C(N)=O` [Cpd 008, (2S)-2-({2-methyl-5-[(pyridin-2-yl)methoxy]-1-benzothiophen-3-yl}formamido)propanamide] belongs less than 1000 nM.
The figure for `Cc1sc2ccc(OCc3ccccc3F)cc2c1C(=O)NC1CCNCC1(F)F` (single isomer, unassigned) [Cpd 095 - En2, N-(3,3-difluoropiperidin-4-yl)-5-[(2-fluorophenyl)methoxy]-2-methyl-1-benzothiophene-3-carboxamide] is 1000 to 20000 nM.
To `Cc1ncsc1COc1ccc2sc(C)c(C(=O)NC3(C(N)=O)CCOCC3)c2c1` [Cpd 033, 4-{2-methyl-5-[(4-methyl-1,3-thiazol-5-yl)methoxy]-1-benzothiophene-3-amido}oxane-4-carboxamide] belongs less than 1000 nM; to `CNC(=O)c1c(C)sc2ccc(OCc3ccccc3)cc12` [Cpd 134, 5-(benzyloxy)-N,2-dimethyl-1-benzothiophene-3-carboxamide], more than 20000 nM; to `Cc1nc(COc2ccc3sc(C)c(C(=O)NC(C)(CO)C(N)=O)c3c2)cs1` (single isomer, unassigned) [Cpd 015 - En2, 3-hydroxy-2-methyl-2-({2-methyl-5-[(2-methyl-1,3-thiazol-4-yl)methoxy]-1-benzothiophen-3-yl}formamido)propanamide], less than 1000 nM.
For the molecule `Cc1ncc(COc2ccc3sc(C)c(C(=O)N[C@@H](CO)C(N)=O)c3c2)s1` [Cpd 016, (2S)-3-hydroxy-2-({2-methyl-5-[(2-methyl-1,3-thiazol-5-yl)methoxy]-1-benzothiophen-3-yl}formamido)propanamide], the IC50 is less than 1000 nM.
The figure for `CN1CCC(NC(=O)c2c(C(F)F)sc3ccc(OCc4ccccc4)cc23)C1` (centres unmarked) [Cpd 124, 5-(benzyloxy)-2-(difluoromethyl)-N-(1-methylpyrrolidin-3-yl)-1-benzothiophene-3-carboxamide] is 1000 to 20000 nM; for `Cc1ncsc1COc1ccc2sc(C)c(C(=O)O)c2c1` [Cpd 049, 2-methyl-5-[(4-methyl-1,3-thiazol-5-yl)methoxy]-1-benzothiophene-3-carboxylic acid] it is 1000 to 20000 nM.
